# Source: patent publication US8735436B2, “Polyunsaturated fatty acids for the treatment of diseases related to cardiovascular, metabolic and inflammatory disease areas” (Pronova Biopharma Norge AS, priority 2009, dated 2014)
# Assays:
# Test in all cases: PPAR activation in vitro, mammalian-one-hybrid (M1H) GAL4-PPAR-LBD luciferase reporter assay
# Format in all cases: cell-based
# PPARγ = molecular target: T1, PPARγ (Homo sapiens, UniProt P37231); conditions: for PPARγ Efficacy: HEK293 cells, efficacy of positive control (rosiglitazone) set to 100%; for EC50: transiently transfected HEK293 cells, compound incubation 16-20 h, six concentrations in duplicate
# T1 construct: expressed in transfected cells; host or cells: HEK293
# T1 sequence (P37231 238-503 limits assumed): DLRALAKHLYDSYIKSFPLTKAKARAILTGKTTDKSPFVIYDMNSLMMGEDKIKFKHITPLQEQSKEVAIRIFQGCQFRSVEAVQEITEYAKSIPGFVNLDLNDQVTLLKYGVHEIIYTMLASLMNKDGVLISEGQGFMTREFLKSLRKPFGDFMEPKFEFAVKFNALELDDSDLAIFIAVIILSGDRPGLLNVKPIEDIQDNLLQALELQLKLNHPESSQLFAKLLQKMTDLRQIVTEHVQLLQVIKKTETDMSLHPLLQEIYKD
# Protocol: (§1) The assays were carried out in vitro using mammalian-one-hybrid assays (M1H) comprising GAL4-DNA binding domain-PPAR-LBD fusion constructs in conjunction with 5×GAL4-sites driven Photinus pyralis luciferase reporter constructs in transiently transfected HEK293 cells.
# (§2) The cells were transfected 4-6 h and grown overnight before compounds were added. Compound incubation was 16-20 h.
# (§3) Renilla reniformis luciferase, driven by a constitutive promoter, was included as internal control to improve experimental accuracy.
# (§4) The compounds (A-C) and a positive control were tested at six different concentrations in duplicate. The positive controls were GW7647 (PPARα), GW501516 (PPARδ) and rosiglitazone (PPARγ). The efficacy of the controls were set to 100%.
# PPARα = molecular target: T2, PPARα (Homo sapiens, UniProt Q07869); conditions: for PPARα Efficacy: HEK293 cells, efficacy of positive control (GW7647) set to 100%; for EC50: transiently transfected HEK293 cells, compound incubation 16-20 h, six concentrations in duplicate
# T2 construct: expressed in transfected cells; host or cells: HEK293
# T2 sequence (Q07869 239-466 limits assumed): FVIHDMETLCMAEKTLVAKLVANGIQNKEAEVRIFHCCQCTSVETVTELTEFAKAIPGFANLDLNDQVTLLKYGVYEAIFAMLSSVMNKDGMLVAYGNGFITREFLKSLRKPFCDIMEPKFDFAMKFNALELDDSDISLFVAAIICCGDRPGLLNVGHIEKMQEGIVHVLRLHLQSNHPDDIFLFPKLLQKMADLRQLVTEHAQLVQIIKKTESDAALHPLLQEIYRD
# Protocol: as §1, §2, §3, §4
# PPARδ = molecular target: T3, PPARδ (Homo sapiens, UniProt Q03181); conditions: for PPARδ Efficacy: HEK293 cells, efficacy of positive control (GW501516) set to 100%; for PPARδ EC50: transiently transfected HEK293 cells, compound incubation 16-20 h, six concentrations in duplicate
# T3 construct: expressed in transfected cells; host or cells: HEK293
# T3 sequence (Q03181 211-439 limits assumed): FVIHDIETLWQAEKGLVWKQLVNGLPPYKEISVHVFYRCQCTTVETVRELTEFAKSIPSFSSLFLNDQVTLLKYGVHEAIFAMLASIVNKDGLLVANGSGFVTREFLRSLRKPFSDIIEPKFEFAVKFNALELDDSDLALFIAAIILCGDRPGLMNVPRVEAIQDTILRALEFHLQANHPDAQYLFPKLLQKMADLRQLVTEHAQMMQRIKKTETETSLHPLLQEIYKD
# Protocol: as §1, §2, §3, §4
SMILES,PPARγ Efficacy (PPARγ) [%],EC50 (PPARγ) [nM],PPARα Efficacy (PPARα) [%],EC50 (PPARα) [nM],PPARδ Efficacy (PPARδ),PPARδ EC50 (PPARδ)
CC/C=C\C/C=C\C/C=C\C/C=C\C/C=C\CCCCO[C@H](CC)C(=O)O [C],25,515,54,167,inactive,inactive
CC/C=C\C/C=C\C/C=C\C/C=C\C/C=C\CCCCO[C@@H](CC)C(=O)O [B],27,644,86,405,inactive,inactive
CC/C=C\C/C=C\C/C=C\C/C=C\C/C=C\CCCCOC(CC)C(=O)O (stereo not drawn) [A],22,806,82,307,inactive,inactive
